Calls of active or inactive are those of the source. No cut-off for these calls is given here.
Columns and labels:
[1] = test system: Origanum vulgare; test: Inhibition of Origanum vulgare alpha-glucosidase at 18 microg/ml relative to control; conditions: dose 18.0 µg/ml
[2] = Inhibition of alpha-glucosidase (unknown origin); design: species or system Homo sapiens
[3] = biological target: T1, Alpha-glucosidase (Saccharomyces cerevisiae S288c, UniProt P53341+P38158+P07265); test: Inhibition of Saccharomyces cerevisiae alpha-glucosidase using pNPG as substrate preincubated with compound for 20 mins followed by substrate addition measured after 1 hrs by absorbance based analysis; format: protein assay
[4] = biological target: T2, Alpha-amylase (Sus scrofa domesticus, UniProt Q7M328); test: Inhibition of porcine pancreatic alpha-amylase using pNPG as substrate preincubated with compound for 20 mins followed by substrate addition measured after 1 hrs by absorbance based analysis
T2 sequence (Q7M328 whole entry): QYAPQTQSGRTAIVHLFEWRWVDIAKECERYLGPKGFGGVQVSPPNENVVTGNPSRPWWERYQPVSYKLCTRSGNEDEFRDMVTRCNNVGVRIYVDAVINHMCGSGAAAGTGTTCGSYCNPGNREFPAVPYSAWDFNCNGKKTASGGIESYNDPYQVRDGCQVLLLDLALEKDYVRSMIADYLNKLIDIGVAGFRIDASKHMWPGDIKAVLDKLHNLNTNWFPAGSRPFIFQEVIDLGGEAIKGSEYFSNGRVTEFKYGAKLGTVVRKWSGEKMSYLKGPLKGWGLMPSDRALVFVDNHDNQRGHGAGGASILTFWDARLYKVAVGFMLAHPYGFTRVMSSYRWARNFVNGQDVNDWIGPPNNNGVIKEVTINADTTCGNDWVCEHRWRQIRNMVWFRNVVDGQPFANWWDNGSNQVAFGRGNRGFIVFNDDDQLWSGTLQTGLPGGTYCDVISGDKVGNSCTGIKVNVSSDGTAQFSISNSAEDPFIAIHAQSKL

[5] = Cytotoxicity against mouse L929 cells assessed reduction in cell viability incubated for 24 hrs by MTT assay; format: toxicity, cell-based
[6] = Selectivity index, ratio of IC50 for inhibition of porcine pancreatic alpha-amylase using pNPG as substrate to IC50 for inhibition of Saccharomyces cerevisiae alpha-glucosidase using pNPG as substrate
[7] = biological target: T1, Alpha-glucosidase; test: Mixed type inhibition of Saccharomyces cerevisiae alpha-glucosidase using pNPG as substrate assessed as inhibition constant preincubated for 20 mins followed by substrate addition measured after 1 hrs by Lineweaver-burk plot analysis; format: protein assay
[8] = Acute toxicity in Wistar rat assessed as change in salivation at 300 mg/kg, po measured for 14 days; format: organism-based; conditions: in vivo, 336 h, time 14 day
[9] = Acute toxicity in Wistar rat assessed as change in salivation at 50 mg/kg, po measured for 14 days; format: organism-based; conditions: in vivo, 336 h, time 14 day
[10] = Acute toxicity in Wistar rat assessed as change in salivation at 5 mg/kg, po measured for 14 days; format: organism-based; conditions: in vivo, 336 h, time 14 day
[11] = Acute toxicity in Wistar rat assessed as lethal dose measured for 14 days; conditions: in vivo, time 14 day
[12] = Acute toxicity in Wistar rat assessed as mortality rate at 300 mg/kg, po measured for 14 days; format: organism-based; conditions: in vivo, time 14 day, read-out: Activity
[13] = test system: Rattus norvegicus; test: Hypoglycemic activity in streptozotocin-induced diabetic Wistar rat model assessed as decrease in blood glucose level at 5 to 20 mg/kg, po administered for 5 days and measured after 30 mins by glucometer analysis; format: functional, organism-based; conditions: dose 5-20 mg/kg, time 7230.0 min
[14] = test system: Rattus norvegicus; test: Hypoglycemic activity in streptozotocin-induced diabetic Wistar rat model assessed as decrease in blood glucose level at 5 mg/kg, po administered for 5 days and measured after 1 hr by maltose loading test relative to control; format: functional; design: scale not given: the % may be the effect or the level left; conditions: time 121 hrs
[15] = test system: Rattus norvegicus; test: Hypoglycemic activity in streptozotocin-induced diabetic Wistar rat model assessed as decrease in blood glucose level at 10 mg/kg, po administered for 5 days and measured after 1 hr by maltose loading test relative to control; format: functional; design: scale not given: the % may be the effect or the level left; conditions: time 121 hrs
[16] = test system: Rattus norvegicus; test: Hypoglycemic activity in streptozotocin-induced diabetic Wistar rat model assessed as decrease in blood glucose level at 20 mg/kg, po administered for 5 days and measured after 1 hr by maltose loading test relative to control; format: functional; design: scale not given: the % may be the effect or the level left; conditions: time 121 hrs
[17] = test system: Rattus norvegicus; test: Hypoglycemic activity in streptozotocin-induced diabetic Wistar rat model assessed as decrease in blood glucose level at 5 mg/kg, po administered for 5 days and measured after 1 hr by sucrose loading test relative to control; format: functional; design: scale not given: the % may be the effect or the level left; conditions: time 121 hrs
[18] = test system: Rattus norvegicus; test: Hypoglycemic activity in streptozotocin-induced diabetic Wistar rat model assessed as decrease in blood glucose level at 10 mg/kg, po administered for 5 days and measured after 1 hr by sucrose loading test relative to control; format: functional; design: scale not given: the % may be the effect or the level left; conditions: time 121 hrs
[19] = test system: Rattus norvegicus; test: Hypoglycemic activity in streptozotocin-induced diabetic Wistar rat model assessed as decrease in blood glucose level at 20 mg/kg, po administered for 5 days and measured after 1 hr by sucrose loading test relative to control; format: functional; design: scale not given: the % may be the effect or the level left; conditions: time 121 hrs
[20] = test system: Rattus norvegicus; test: Hypoglycemic activity in streptozotocin-induced diabetic Wistar rat model assessed as reduction in fasting blood glucose level at 10 mg/kg, po measured every 7 days for 28 days relative to control; format: functional; design: scale not given: the % may be the effect or the level left; conditions: time 7 day
[21] = test system: Rattus norvegicus; test: Hypoglycemic activity in streptozotocin-induced diabetic Wistar rat model assessed as reduction in fasting blood glucose level at 20 mg/kg, po measured every 7 days for 28 days relative to control; format: functional; design: scale not given: the % may be the effect or the level left; conditions: time 7 day
[22] = Toxicity in Wistar rat assessed as effect on body weight at 20 mg/kg, po measured for 28 days; format: organism-based; conditions: in vivo, 672 h, time 28 day

SMILES	IC50 [3]	IC50 [4]	further results
Cc1ccc(C(C)C)c(OS(=O)(=O)c2ccc(F)cc2)c1	–	–	inhibition [1]: 57.7%; IC50 [2]: 2.3 µM
Cc1ccc(C(C)C)cc1OCc1cn(CCCCCOc2cc(=O)oc3ccccc23)nn1	4.32 µM	37.4 µM	IC50 at 24 h [5]: > 100 µM; Ratio IC50 [6]: 8.65; Ki [7]: 0.832 µM; Activity [8]: Non-Toxic; Activity [9]: Non-Toxic; Activity [10]: Non-Toxic; LD50 at 336 h [11]: 300 mg/kg; mortality at 336 h [12]: 67%; Activity [13]: Active; Activity [14]: 28.91%; Activity [15]: 62.65%; Activity [16]: 70.12%; Activity [17]: 25.24%; Activity [18]: 59.65%; Activity [19]: 60.23%; Activity [20]: 54.69%; Activity [21]: 62.23%; Activity [22]: Non-Toxic
Cc1ccc(C(C)C)c(OCc2cn(CCCOc3cc(=O)oc4ccccc34)nn2)c1	37.59 µM	> 100 µM	–
O=C(Cn1cc(COc2ccc3ccc(=O)oc3c2)nn1)NCc1cccc(Br)c1	–	–	IC50 [2]: 0.543 µM
Cc1ccc(C(C)C)c(OCc2cn(CCCOc3ccc4ccc(=O)oc4c3)nn2)c1	72.91 µM	> 100 µM	–
Cc1ccc(CNC(=O)Cn2cc(COc3cc(=O)oc4ccccc34)nn2)cc1	–	–	IC50 [2]: 3.5 µM
Cc1ccc(C(C)C)cc1OCc1cn(CCOc2cc(=O)oc3ccccc23)nn1	78.69 µM	> 100 µM	–
C[C@H]1O[C@H](O[C@H]2[C@H](O)[C@@H](O)[C@@H](O[C@H]3[C@H](O)[C@@H](O)C(O)O[C@@H]3CO)O[C@@H]2CO)[C@H](O)[C@@H](O)[C@@H]1N[C@H]1C=C(CO)[C@@H](O)[C@H](O)[C@H]1O (some centres not stated) [ACARBOSE]	–	–	Activity [15]: 53.01%; Activity [18]: 56.31%; Activity [20]: 25.86%
Cc1ccc(C(C)C)c(OCc2cn(CCOc3cc(=O)oc4ccccc34)nn2)c1	61.24 µM	> 100 µM	–
Cc1ccc(C(C)C)cc1OCc1cn(CCOc2ccc3ccc(=O)oc3c2)nn1	64.21 µM	> 100 µM	–
Cc1ccc(C(C)C)c(OCc2cn(CCCCCCOc3ccc4ccc(=O)oc4c3)nn2)c1	> 100 µM	> 100 µM	–
Cc1ccc(C(C)C)c(OCc2cn(CCCCOc3ccc4ccc(=O)oc4c3)nn2)c1	> 100 µM	> 100 µM	–
Cc1ccc(C(C)C)cc1OS(=O)(=O)c1ccc(F)cc1	–	–	inhibition [1]: 57.7%; IC50 [2]: 2.56 µM
Cc1ccc(C(C)C)cc1OCc1cn(CCCCCCOc2cc(=O)oc3ccccc23)nn1	9.23 µM	69.3 µM	IC50 at 24 h [5]: > 100 µM; Ratio IC50 [6]: 7.51
Cc1ccc(C(C)C)cc1OCc1cn(CCCCOc2ccc3ccc(=O)oc3c2)nn1	> 100 µM	> 100 µM	–
Cc1ccc(C(C)C)cc1OCc1cn(CCCOc2cc(=O)oc3ccccc23)nn1	68.51 µM	> 100 µM	–
Cc1ccc(C(C)C)cc1OCc1cn(CCCCOc2cc(=O)oc3ccccc23)nn1	26.48 µM	> 100 µM	–
Cc1ccc(C(C)C)cc1OCc1cn(CCCCCOc2ccc3ccc(=O)oc3c2)nn1	> 100 µM	> 100 µM	–
Cc1ccc(C(C)C)c(OCc2cn(CCCCOc3cc(=O)oc4ccccc34)nn2)c1	25.36 µM	77.5 µM	Ratio IC50 [6]: 3.06
Cc1ccc(C(C)C)c(OCc2cn(CCOc3ccc4ccc(=O)oc4c3)nn2)c1	56.41 µM	> 100 µM	–
Cc1ccc(C(C)C)cc1OCc1cn(CCCOc2ccc3ccc(=O)oc3c2)nn1	> 100 µM	> 100 µM	–
Cc1ccc(C(C)C)cc1OCc1cn(CCCCCCOc2ccc3ccc(=O)oc3c2)nn1	> 100 µM	> 100 µM	–
Cc1ccc(C(C)C)c(OCc2cn(CCCCCOc3ccc4ccc(=O)oc4c3)nn2)c1	> 100 µM	> 100 µM	–
Cc1ccc(C(C)C)c(OCc2cn(CCCCCOc3cc(=O)oc4ccccc34)nn2)c1	7.53 µM	57.3 µM	IC50 at 24 h [5]: > 100 µM; Ratio IC50 [6]: 7.61
Cc1ccc(C(C)C)c(OCc2cn(CCCCCCOc3cc(=O)oc4ccccc34)nn2)c1	16.32 µM	> 100 µM	–
